Counter-ions that a name gives are not always drawn.
Legend:
Hep3B cells [1] = assay: EPO produced in Hep3B cell culture medium under 1% oxygen, ELISA kit (Test Example 2); assay type: cell-based; conditions: 24 hrs, 100 nM, control 8.1
Method: Hep3B cells were inoculated by 1×10^6 on each of 6 cm dishes, and then cultured for 24 hrs. As a culture medium, 3 mL of DMEM/10% FCS was used. The culture medium was exchanged and the compounds of each of Preparation Examples 13, 23, 29, 36, and 114 were added such that the content thereof was 100 nM final concentration, and they were transferred into the atmosphere of 1% oxygen at 37° C. for further 24 hrs culture thereof. The supernatant of the culture was recovered, and the amount of EPO was measured by ELISA kit (product of Roche Diagnostics) (two cases in each group). Further, cell extract was prepared and protein amount was determined, and corrected it as production amount per protein amount. As a control, groups not containing the compounds are prepared.

Hep3B cells [2] = assay: EPO protein produced by Hep3B cells under hypoxia (1% O2), ELISA (Test Example 1); assay type: cell-based; conditions: 1% O2, 24 hrs
Method: (§1) Hep3B cells producing EPO under hypoxic condition were used. The cells were inoculated onto a 100 mm petri dish by 1.5-3.0×10^6. As a culture medium, 10 ml of Dulbecco's Modified Eagles' Medium (DMEM)/10% Fetal Calf Serum (FCS) was used. The next day, the culture medium was exchanged, and compound of Preparation Example 13 (final concentration: 100 nM) was added, then cells were cultured under 1% O2 at 37° C. for 24 hrs. Groups were prepared in which IL-1β (final concentration: 15 U/ml) or TNF-α (final concentration: 220 U/ml), of which EPO production suppressing action is known (Faquin W C, Schneider T J, Goldgerg M A, Blood, 79(8): 1987-94 (1992)), were used solely or in combination with compound of Preparation Example 13 (final concentration: 100 nM). […] The amount of EPO in the supernatant obtained after the culture was measured by ELISA (each group; n=3). The enhancer site and promoter site (144 bp) of a human EPO gene were linked to luciferase reporter vector, which was used for measuring the EPO promoter activity. The EPO promoter activity was evaluated as follows.
(§2) The data obtained were analyzed and evaluated by Student's t-test.

anemia model mice = assay: In vivo mice anemia model with IL-1β or TNF-α suppressed EPO production (Test Example 3); set-up: species or system mouse
Method: ICR mice (available from CLEA Japan Inc.) were made to be anemia by taking blood samples by 0.3 mL at a time from the orbital vein of the mouse by use of a heparin-coated microcapillary by 4 times in every 12 hours from 2 days before administering the agents. Further, 1.67×10^4 unit/day of mouse IL-1β (Roche Diagnostics) or 3.33×10^5 unit/day of mouse TNF-α (Roche Diagnostics) was injected intraperitoneally on day 0-3 (the first day of administration of agents was defined as […]) to induce a suppressed condition of EPO production. To these mice, Preparation Example 13 compound dissolved in 50% polyethylene glycol solution was administered orally by 1 or 3 mg/kg/day on day 0-5. As a control, 50% polyethylene glycol solution was administered (each group; n=7-15). On day 3 and 6, 0.3 mL of blood was collected, and hematocrit (Ht) value, hemoglobin (Hb) concentration (Celltac a: NIHON KOHDEN), EPO amount (ELISA kit: Roche Diagnostics) were measured. Also, the blood was stained by methylene-blue, and smears were prepared to calculate Reticulocytes value.

human EPO promoter = assay: EPO promoter activity, luciferase reporter in Hep3B cells, 1% O2 vs 21% O2 (Test Example 1); assay type: cell-based; conditions: 24 hrs
Method: as §1
1×10^6 Hep3B cells were inoculated on 30 mm petri dish (4 mL:DMEM/10% FCS), and a reporter gene (2 μg) as well as P-galactosidase gene (1 μg) as an internal standard were transfected into the cells by the lipofectin method. The next day, the culture medium was exchanged and the groups, whose group-composition was similar to the above (control group (containing no agents), IL-1β group (final concentration: 15 U/ml), TNF-α (final concentration: 220 U/ml), compound of Preparation Example 13 (final concentration: 100 nM), or a combination of compound of Preparation Example 13 and IL-1β or TNF-α) were cultured under 1% O2 or 21% O2 (as a control) at 37° C. for 24 hrs (for each group; n=4). The extract of the cells after cultured were prepared, then luciferase activity and β galactosidase activity were measured. The EPO promoter activity was expressed by the formula: […]
as §2

[3] = day 3, IL-1β mice, compound 1 mg/kg/day
[4] = day 3, IL-1β mice, compound 3 mg/kg/day
[5] = day 3, IL-1β mice, compound oral 1 mg/kg/day
[6] = day 3, IL-1β mice, compound oral 3 mg/kg/day
[7] = day 3, TNF-α mice, compound 1 mg/kg/day
[8] = day 3, TNF-α mice, compound 3 mg/kg/day
[9] = day 3, TNF-α mice, compound oral 1 mg/kg/day
[10] = day 3, TNF-α mice, compound oral 3 mg/kg/day
[11] = day 6, IL-1β mice, compound oral 1 mg/kg/day
[12] = day 6, IL-1β mice, compound oral 3 mg/kg/day
[13] = day 6, TNF-α mice, compound oral 1 mg/kg/day
[14] = day 6, TNF-α mice, compound oral 3 mg/kg/day

COc1ccc(N(Cc2cncc(-c3cc(OC)c(OC)c(OC)c3)c2)C2CCN(Cc3ccnc(-c4cc(OC)c(OC)c(OC)c4)c3)CC2)cc1 [Preparation Example 13, 4-[N-(4-methoxyphenyl)-N-[[5-(3,4,5-trimethoxyphenyl)pyridin-3-yl]methyl]amino]1-[[2-(3,4,5-trimethoxyphenyl)pyridin-4-yl]methyl]piperidine Trihydrochloride]
Increasing action of EPO production (amount of EPO per protein amount) (Hep3B cells [1]): 18.2 mU/mg Protein
amount of the produced EPO protein relative to control (Hep3B cells [2]; compound 100 nM): twice as much as the control
amount of the produced EPO protein (Hep3B cells [2]; compound 100 nM alone): 829.8±119.0 mU/mg protein
amount of the produced EPO protein (Hep3B cells [2]; compound 100 nM in combination with IL-1β 15 U/ml): 395.0±72.6 mU/mg protein
amount of the produced EPO protein (Hep3B cells [2]; compound 100 nM in combination with TNF-α 220 U/ml): 284.8±24.2 mU/mg protein
EPO amount in serum (anemia model mice; [3]): 41.8±28.3 mU/mL
reticulocyte value (anemia model mice; [3]): 36.1±4.5%
EPO amount in serum (anemia model mice; [4]): 58.9±21.1 mU/mL
reticulocyte value (anemia model mice; [4]): 38.1±8.1%
Hb amount (anemia model mice; [5]): 12.7 ± 0.7 g/dL
Ht value (anemia model mice; [5]): 37.5±2.5%
Hb amount (anemia model mice; [6]): 12.6 ± 1.0 g/dL
Ht value (anemia model mice; [6]): 37.5±3.1%
EPO amount in serum (anemia model mice; [7]): 61.4±70.4 mU/mL
reticulocyte value (anemia model mice; [7]): 29.1±4.7%
EPO amount in serum (anemia model mice; [8]): 64.7±92.2 mU/mL
reticulocyte value (anemia model mice; [8]): 28.9±4.5%
Hb amount (anemia model mice; [9]): 12.8 ± 0.6 g/dL
Ht value (anemia model mice; [9]): 38.8±2.0%
Hb amount (anemia model mice; [10]): 13.1 ± 0.8 g/dL
Ht value (anemia model mice; [10]): 40.0±2.7%
EPO amount in serum (anemia model mice; [11]): 22.2±32.8 mU/mL
Hb amount (anemia model mice; [11]): 14.1 ± 1.1 g/dL
Ht value (anemia model mice; [11]): 42.6±2.5%
reticulocyte value (anemia model mice; [11]): 27.1±2.5%
EPO amount in serum (anemia model mice; [12]): 37.1±31.1 mU/mL
Hb amount (anemia model mice; [12]): 14.0 ± 0.9 g/dL
Ht value (anemia model mice; [12]): 43.3±2.8%
reticulocyte value (anemia model mice; [12]): 30.4±4.0%
EPO amount in serum (anemia model mice; [13]): 57.4±23.9 mU/mL
Hb amount (anemia model mice; [13]): 14.0 ± 0.6 g/dL
Ht value (anemia model mice; [13]): 43.3±2.5%
reticulocyte value (anemia model mice; [13]): 23.3±3.3%
EPO amount in serum (anemia model mice; [14]): 69.9±37.8 mU/mL
Hb amount (anemia model mice; [14]): 13.8 ± 0.5 g/dL
Ht value (anemia model mice; [14]): 43.2±2.2%
reticulocyte value (anemia model mice; [14]): 26.8±7.5%
human EPO promoter activity (HI) (human EPO promoter; compound 100 nM alone): 46.1±5.9 fold
human EPO promoter activity (HI) (human EPO promoter; compound 100 nM with IL-1β 15 U/ml): 45.5±7.1 fold
human EPO promoter activity (HI) (human EPO promoter; compound 100 nM with TNF-α 220 U/ml): 49.5±5.4 fold

COc1cc(OC)cc(N(Cc2ccnc(-c3cc(OC)c(OC)c(OC)c3)c2)C2CCN(Cc3ccnc(-c4cc(OC)c(OC)c(OC)c4)c3)CC2)c1 [Preparation Example 23, 4-[N-(3,5-dimethoxyphenyl)-N-[[2-(3,4,5-trimethoxyphenyl)pyridin-4-yl]methyl]amino]-1-[[2-(3,4,5-trimethoxyphenyl)pyridin-4-yl]methyl]piperidine Trihydrochloride]
Increasing action of EPO production (amount of EPO per protein amount) (Hep3B cells [1]): 13.9 mU/mg Protein

COc1cc(-c2cc(CN3CCC(N(Cc4ccnc(-c5cc(OC)c(OC)c(OC)c5)c4)c4ccc5c(c4)OCO5)CC3)ccn2)cc(OC)c1OC [Preparation Example 29, 4-[N-(3,4-methylenedioxyphenyl)-N-[[2-(3,4,5-trimethoxyphenyl)pyridin-4-yl]methyl]amino]-1-[[2-(3,4,5-trimethoxyphenyl)pyridin-4-yl]methyl]piperidine Trihydrochloride]
Increasing action of EPO production (amount of EPO per protein amount) (Hep3B cells [1]): 10.5 mU/mg Protein

COc1cc(-c2cc(CN3CCC(N(C)Cc4ccnc(-c5cc(OC)c(OC)c(OC)c5)c4)CC3)ccn2)cc(OC)c1OC [Preparation Example 36, 4-[N-methyl-N-[[2-(3,4,5-trimethoxyphenyl)pyridin-4-yl]methyl]amino]-1-[[2-(3,4,5-trimethoxyphenyl)pyridin-4-yl]methyl]piperidine Tetrahydrochloride]
Increasing action of EPO production (amount of EPO per protein amount) (Hep3B cells [1]): 10.0 mU/mg Protein

COc1cc(-c2cncc(CN(c3ccc(SC)cc3)C3CCN(Cc4ccnc(-c5cc(OC)c(OC)c(OC)c5)c4)CC3)c2)cc(OC)c1OC [Preparation Example 114]
Increasing action of EPO production (amount of EPO per protein amount) (Hep3B cells [1]): 14.9 mU/mg Protein

TNF-α
amount of the produced EPO protein (Hep3B cells [2]; TNF-α 220 U/ml alone): 180.8±24.6 mU/mg protein
Hb amount (anemia model mice; day 3, TNF-α i.p. alone (control 13.8±0.6)): 12.6 ± 0.7 g/dL
EPO amount in serum (anemia model mice; day 3, TNF-α i.p. alone (control 23.7±31.0)): 2.7±4.6 mU/mL
reticulocyte value (anemia model mice; day 3, TNF-α i.p. alone (control 32.1±4.4)): 14.2±3.4%
Ht value (anemia model mice; day 3, TNF-α i.p. alone (control 42.2±3.6)): 38.3±2.5%
Hb amount (anemia model mice; day 6, TNF-α i.p. alone (control 14.8±0.8)): 13.1 ± 0.5 g/dL
reticulocyte value (anemia model mice; day 6, TNF-α i.p. alone (control 16.3±3.1)): 9.4±3.3%
EPO amount in serum (anemia model mice; day 6, TNF-α i.p. alone (control 24.8±33.8)): 3.3±6.0 mU/mL
Ht value (anemia model mice; day 6, TNF-α i.p. alone (control 46.4±2.9)): 41.6±1.8%
human EPO promoter activity (HI) (human EPO promoter; TNF-α 220 U/ml alone): 20.7±4.1 fold

B1: IL-1β: "IL-1β (final concentration: 15 U/ml) ... of which EPO production suppressing action is known"; "mouse IL-1β (Roche Diagnostics)" in vivo (protein, UniProt P10749 118-269, looked up)
Interleukin-1 beta: VPIRQLHYRLRDEQQKSLVLSDPYELKALHLNGQNINQQVIFSMSFVQGEPSNDKIPVALGLKGKNLYLSCVMKDGTPTLQLESVDPKQYPKKKMEKRFVFNKIEVKSKVEFESAEFPNWYISTSQAEHKPVFLGNNSGQDIIDFTMESVSS
amount of the produced EPO protein (Hep3B cells [2]; IL-1β 15 U/ml alone): 233.3±19.4 mU/mg protein
Hb amount (anemia model mice; day 3, IL-1β i.p. alone (control 13.8±0.6)): 12.3 ± 0.8 g/dL
EPO amount in serum (anemia model mice; day 3, IL-1β i.p. alone (control 23.7±31.0)): 5.9±14.3 mU/mL
reticulocyte value (anemia model mice; day 3, IL-1β i.p. alone (control 32.1±4.4)): 15.4±3.5%
Ht value (anemia model mice; day 3, IL-1β i.p. alone (control 42.2±3.6)): 36.0±3.0%
Hb amount (anemia model mice; day 6, IL-1β i.p. alone (control 14.8±0.8)): 13.5 ± 0.5 g/dL
reticulocyte value (anemia model mice; day 6, IL-1β i.p. alone (control 16.3±3.1)): 12.2±2.0%
EPO amount in serum (anemia model mice; day 6, IL-1β i.p. alone (control 24.8±33.8)): 2.9±5.0 mU/mL
Ht value (anemia model mice; day 6, IL-1β i.p. alone (control 46.4±2.9)): 40.9±1.5%
human EPO promoter activity (HI) (human EPO promoter; IL-1β 15 U/ml alone): 19.9±6.5 fold

From US20090143430A1, “ERYTHROPOIETIN PRODUCTION ACCELERATOR” (Kowa Co., Ltd., priority 2002, published 2009)
